Assay results taken from PubChem BioAssay AID1963430 (Molecular Pharmacology Branch, DTP, NCI, 2024).
pIC50: −log10 of the molar value. Several values for one entry are separate records, joined by “and”; a condition that tells them apart may be missing. Equal entries are not always repeated.

System: 521955-158-R2-J5-PDC complex spheroid growth, % test/control
Test: Anticancer human tumor 521955-158-R2-J5-PDC patient-derived pancreatic carcinoma cell line growth inhibition [Asc]
Conditions: for viability, T/C: stronger effect = lower value; active means viability on the fitted dose curve at most 10% of control; inactive means the rest
Method in brief: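 Spheroid model: tumor line + HUVEC + hMSC. Single agents and combinations; top conc. at/near clinical Cmax (10 microM if undetermined), half-log dilutions. DMSO stocks at 800-fold test concentration.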
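Further: spheroids exposed to agents for 7 days before readout.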
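Wherever viability, T/C is given: 100% = DMSO vehicle control viability.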

Cn1ncnc1[C@H]1c2n[nH]c(=O)c3cc(F)cc(c23)N[C@@H]1c1ccc(F)cc1 + CNC(C)C(=O)NC1CN(S(=O)(=O)c2cccc(S(=O)(=O)N3CCC4CCC(C(=O)NC(c5ccccc5)c5ccccc5)N4C(=O)C(NC(=O)C(C)NC)C3)c2)CCC2CCC(C(=O)NC(c3ccccc3)c3ccccc3)N2C1=O
< 7.00: pIC50 (curve of first compound, second compound 0.01 µM) | pIC50 (curve of first compound, second compound 0.0316 µM) | pIC50 (curve of first compound, second compound 0.1 µM) | pIC50 (curve of first compound, second compound 0.316 µM) | pIC50 (curve of first compound, second compound 1 µM)
inactive: viability, T/C (second compound 0.01 µM, first compound 0.000316 µM) 103% | viability, T/C (second compound 0.01 µM, first compound 0.001 µM) 103% | viability, T/C (second compound 0.01 µM, first compound 0.00316 µM) 85.7% | viability, T/C (second compound 0.01 µM, first compound 0.01 µM) 65.6% | viability, T/C (second compound 0.01 µM, first compound 0.0316 µM) 65.4% | viability, T/C (second compound 0.01 µM, first compound 0.1 µM) 71.9% | viability, T/C (second compound 0.0316 µM, first compound 0.000316 µM) 103% | viability, T/C (second compound 0.0316 µM, first compound 0.001 µM) 102% | viability, T/C (second compound 0.0316 µM, first compound 0.00316 µM) 89.6% | viability, T/C (second compound 0.0316 µM, first compound 0.01 µM) 78% | viability, T/C (second compound 0.0316 µM, first compound 0.0316 µM) 62.3% | viability, T/C (second compound 0.0316 µM, first compound 0.1 µM) 64.1% | viability, T/C (second compound 0.1 µM, first compound 0.000316 µM) 80.8% | viability, T/C (second compound 0.1 µM, first compound 0.001 µM) 108% | viability, T/C (second compound 0.1 µM, first compound 0.00316 µM) 91% | viability, T/C (second compound 0.1 µM, first compound 0.01 µM) 76.5% | viability, T/C (second compound 0.1 µM, first compound 0.0316 µM) 86.9% | viability, T/C (second compound 0.1 µM, first compound 0.1 µM) 56.2% | viability, T/C (second compound 0.316 µM, first compound 0.000316 µM) 100% | viability, T/C (second compound 0.316 µM, first compound 0.001 µM) 83% | viability, T/C (second compound 0.316 µM, first compound 0.00316 µM) 96.4% | viability, T/C (second compound 0.316 µM, first compound 0.01 µM) 79.2% | viability, T/C (second compound 0.316 µM, first compound 0.0316 µM) 73.4% | viability, T/C (second compound 0.316 µM, first compound 0.1 µM) 63.2% | viability, T/C (second compound 1 µM, first compound 0.000316 µM) 108% | viability, T/C (second compound 1 µM, first compound 0.001 µM) 75.1% | viability, T/C (second compound 1 µM, first compound 0.00316 µM) 102% | viability, T/C (second compound 1 µM, first compound 0.01 µM) 89.5% | viability, T/C (second compound 1 µM, first compound 0.0316 µM) 68.3% | viability, T/C (second compound 1 µM, first compound 0.1 µM) 86.6%

C=CC(=O)N1CCN(c2nc(=O)n(-c3c(C)ccnc3C(C)C)c3nc(-c4c(O)cccc4F)c(F)cc23)C(C)C1 (configuration not stated)
< 5.00: pIC50 (curve of compound)
inactive: viability, T/C (compound 0.0316 µM) 87.7% and 88.9% and 88.2% | viability, T/C (compound 0.1 µM) 72.1% and 90.3% and 87.8% | viability, T/C (compound 0.316 µM) 76.3% and 92.3% and 90.2% | viability, T/C (compound 1 µM) 108% and 87.7% and 113% | viability, T/C (compound 3.16 µM) 102% and 121% and 112% | viability, T/C (compound 10 µM) 101% (2×) and 95.5%

CCN1CCN(Cc2ccc(Nc3ncc(F)c(-c4cc(F)c5nc(C)n(C(C)C)c5c4)n3)nc2)CC1 + CCN1C(C(=O)NC23CCC(C(=O)O)(CC2)CC3)C(c2cccc(Cl)c2F)C2(C(=O)Nc3cc(Cl)ccc32)C12CCCCC2
< 6.00: pIC50 (curve of first compound, second compound 0.03 µM) | pIC50 (curve of first compound, second compound 0.0949 µM) | pIC50 (curve of first compound, second compound 0.3 µM) | pIC50 (curve of first compound, second compound 0.949 µM) | pIC50 (curve of first compound, second compound 3 µM)
inactive: viability, T/C (second compound 0.03 µM, first compound 0.00316 µM) 87.5% | viability, T/C (second compound 0.03 µM, first compound 0.01 µM) 88.8% | viability, T/C (second compound 0.03 µM, first compound 0.0316 µM) 57.3% | viability, T/C (second compound 0.03 µM, first compound 0.1 µM) 77.4% | viability, T/C (second compound 0.03 µM, first compound 0.316 µM) 72.4% | viability, T/C (second compound 0.03 µM, first compound 1 µM) 89.4% | viability, T/C (second compound 0.0949 µM, first compound 0.00316 µM) 101% | viability, T/C (second compound 0.0949 µM, first compound 0.01 µM) 79.8% | viability, T/C (second compound 0.0949 µM, first compound 0.0316 µM) 62.8% | viability, T/C (second compound 0.0949 µM, first compound 0.1 µM) 56.3% | viability, T/C (second compound 0.0949 µM, first compound 0.316 µM) 73.2% | viability, T/C (second compound 0.0949 µM, first compound 1 µM) 105% | viability, T/C (second compound 0.3 µM, first compound 0.00316 µM) 106% | viability, T/C (second compound 0.3 µM, first compound 0.01 µM) 99.1% | viability, T/C (second compound 0.3 µM, first compound 0.0316 µM) 65.6% | viability, T/C (second compound 0.3 µM, first compound 0.1 µM) 60.9% | viability, T/C (second compound 0.3 µM, first compound 0.316 µM) 83.8% | viability, T/C (second compound 0.3 µM, first compound 1 µM) 110% | viability, T/C (second compound 0.949 µM, first compound 0.00316 µM) 119% | viability, T/C (second compound 0.949 µM, first compound 0.01 µM) 102% | viability, T/C (second compound 0.949 µM, first compound 0.0316 µM) 107% | viability, T/C (second compound 0.949 µM, first compound 0.1 µM) 79% | viability, T/C (second compound 0.949 µM, first compound 0.316 µM) 92.3% | viability, T/C (second compound 0.949 µM, first compound 1 µM) 98.2% | viability, T/C (second compound 3 µM, first compound 0.00316 µM) 142% | viability, T/C (second compound 3 µM, first compound 0.01 µM) 172% | viability, T/C (second compound 3 µM, first compound 0.0316 µM) 126% | viability, T/C (second compound 3 µM, first compound 0.1 µM) 89.6% | viability, T/C (second compound 3 µM, first compound 0.316 µM) 107% | viability, T/C (second compound 3 µM, first compound 1 µM) 139%
